# Literature values in US20260248126A1, “BIOCIDE” (PURGOS APS, priority 2020, published 2026).
# Conditions: cited from earlier work
smiles,measurement,value
"[Cl-].[Na+] [table salt (NaCl), NaCl]","LD50 (rat, oral)",3000 mg
